# Test results: US12075788B2, “Antimicrobial nano-emulsion” (Laboratoire M2, priority 2019, dated 2024)
# Key:
# [1] = concentration similar to body care products; cited from earlier work
# [2] = Rats fed 300 mg per day; cited from earlier work
# [3] = cited from earlier work
# [4] = system: Erwinia amylovora streptomycin sensitive strain (435s); assay: Detached apple flower assay for fire blight blossom infection, streptomycin sensitive strain; assay type: in vivo; conditions: Streptomycin 17 0.6 g/L; 7 days after inoculation; FIG. 12
# Description: (§1) Refrigerated dormant 2-year potted apple trees (cv Gala) were forced to bloom at room temperature in late March 2019. Fresh individual flowers were handpicked as they bloomed and placed in small vials containing 10% sucrose, ensuring their pedicels were submerged. The vials were inserted in racks that were placed in small air-tight boxes for incubation at 25° C. A thin layer of a glycerol water solution (33% w/w) in each box maintained constant humidity. Flowers were individually inoculated directly in the hypanthium with 10 μL of a 10^5 CFU/mL suspension of Erwinia amylovora in PBS with Tween 20 at 0.1% w/w. Half the flowers were inoculated with a streptomycin resistant strain (1535m5) collected in Oregon, USA, and the other half with a local streptomycin sensitive strain (435s). […] Approximately 30 minutes after inoculation, 10 randomly selected individual flowers of each strain organized in 5 blocks were flooded with 32 μL of each treatment. […] Severity scores excluding streptomycin treated flowers were analyzed with a cumulative link mixed model (clmm) in the “ordinal” package of R(Christensen 2015) using blocks as a random effect. Because of separation, data with streptomycin were analyzed with the “bract” function of the package “brglm2” under R using mean bias reduction (Kosmidis, Pagui, and Sartori 2019). […]
# [5] = system: Erwinia amylovora streptomycin resistant strain (1535m5); assay: Detached apple flower assay for fire blight blossom infection, streptomycin resistant strain; assay type: in vivo; conditions: Streptomycin 17 0.6 g/L; 7 days after inoculation; FIG. 12
# Description: as §1
SMILES,irritation and sensitization [1],effects of feeding [2],acceptable daily intake ([3]; European Food Safety Authority (EFSA)),maximum acceptable daily intake for humans ([3]; USA),effect on fire blight on flowers [4],effect on fire blight on flowers [5]
C/C=C/C=C/C(=O)[O-].[K+] [potassium sorbate],practically non-irritating and non-sensitizing,no observed deleterious effects,3 mg per kg of body weight per day,25 mg per kg of body weight per day,,
[H]/N=C(/N)N[C@H]1[C@H](O)[C@@H](O)[C@H](O[C@@H]2O[C@@H](C)[C@](O)(C=O)[C@H]2O[C@@H]2O[C@@H](CO)[C@H](O)[C@@H](O)[C@@H]2NC)[C@@H](N/C(N)=N\[H])[C@@H]1O [streptomycin],,,,,strongly inhibited fire blight,no effect
